Test results reported in the METLIN SMRT retention time set (Domingo-Almenara et al. 2019).

Test: gradient 5% acetonitrile 3 min, to 50% in 2 min, to 85% in 15 min, held 3 min, 100 µL/min
Settings: column: Zorbax Extend-C18 2.1 x 50 mm; eluents: water / acetonitrile, 0.1% formic acid
Summary of the method: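 Pure standards were run in mixtures of ~100 molecules by HPLC coupled to a quadrupole time-of-flight mass spectrometer. The column was a Zorbax Extend-C18 (2.1 × 50 mm, 1.8 μm) at 100 μL/min, with water and acetonitrile each containing 0.1% formic acid, in positive and negative ionization mode. Dead and dwell volumes were 40 μL and 900 μL. Retention time was taken from computationally picked adduct peaks, each manually inspected, with data collected over 3 months.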

Row | SMILES | RP-LC retention time [s]
1 | Cc1cccc(OCc2nnc(SCC(=O)Nc3nc(-c4ccccc4)c(C)s3)o2)c1 | 932
2 | O=C(c1ccc[nH]1)N1CCC2(CC1)NC(=O)N(Cc1ccc(Cl)cc1)C2=O | 761
3 | Cc1ccc2nc(C)c(NC(=O)C3c4ccccc4Oc4ccccc43)c(=O)n2c1 | 710
4 | COC(=O)C1=CN(c2ccc(N(C)C)cc2)c2ccccc2S1(=O)=O | 883
5 | O=C(CSc1ncccn1)N1CCCC1 | 591
6 | CC(C)(C)c1noc(-c2ccnc(-n3cnc(C(=O)NCc4ccccc4)c3)c2)n1 | 715
7 | CC(C)(C)c1ccc(S(=O)(=O)N2CCCC(CNC(=O)c3ccccc3)C2)cc1 (centres undefined) | 1080
8 | CCOC(=O)C1CCN(c2cc3c(cc2NC(=O)C(C)C)n(C)c(=O)c(=O)n3C)CC1 | 733
9 | CC(NC(=O)c1cc(-c2ccc(F)cc2)cn1C)c1cccnc1 (centres undefined) | 680
10 | O=C(OCc1cc(-c2ccc3c(c2)OCCO3)on1)c1ccc(Br)o1 | 978
11 | CC(C)c1nc2c(c(=O)n1CC(=O)NCc1ccc(F)cc1)CCN(Cc1ccccc1)C2 | 683
12 | CCc1nc2cc(-c3noc(C4(c5ccccc5)CC4)n3)ccc2o1 | 1220
13 | COc1cccc(CNC(=O)Nc2cc3c(cc2N2CCOCC2)n(C)c(=O)n3C)c1 | 723
14 | CN(Cc1ccco1)C(=O)C1CCN(S(=O)(=O)c2ccc3c(c2)sc(=O)n3C)CC1 | 803
15 | O=C(Nc1ccc(F)cc1Cl)c1cnc(-c2ccccc2)nc1-c1ccncc1 | 976
16 | O=S(=O)(Nc1ccc(F)cc1)c1cccnc1Nc1cccc(Cl)c1 | 1130
17 | COc1ccccc1-c1cnn2c(C)cc(C)nc12 | 862
18 | CN1CC2(CCN(C(=O)NC3CCCCC3)CC2)CC1C(=O)N1CCOCC1 (centres undefined) | 595
19 | CCc1ccc(-c2cc(C(F)(F)F)on2)cc1S(=O)(=O)Nc1ccc(S(N)(=O)=O)cc1 | 947
20 | CC1CC(=O)N(CC(=O)Nc2cccc([N+](=O)[O-])c2)c2ccccc2S1 (centres undefined) | 843
21 | O=C(NC1CCCCCC1)C1CCN(C(=O)C2Sc3ccccc3NC2=O)CC1 (centres undefined) | 613
22 | CCCNC(=O)C1CCCN1S(=O)(=O)c1cc(C(=O)OCC)n(C)c1 (centres undefined) | 762
23 | CCCCCCCNCc1ccc2c(c1)n(C)c(=O)n2C | 641

Row | SMILES | RP-LC retention time [s]
24 | Cc1ccccc1S(=O)(=O)N1CCC(c2noc(-c3cccnc3)n2)C1 (centres undefined) | 908
25 | CCCCn1c(=O)c2ccccc2n(Cc2nc(-c3cccc(C)c3)no2)c1=O | 1230
26 | Cc1cccc(C)c1NC(=O)Cn1ncc2c(N3CCN(c4ccccn4)CC3)ncnc21 | 606
27 | O=C(NCc1ccco1)c1ccc2c(c1)N(Cc1ccc(F)cc1)C(=O)CO2 | 830
28 | CCOC(=O)c1nc(NCc2ccc(OC)cc2OC)c2ccccc2n1 | 768
29 | CC(C)Cn1c(=O)c2cc(C(=O)N(C)CC(=O)N3CCCCCC3)nn2c2ccccc21 | 891
30 | O=C(CN1C(=O)CC(c2ccccc2)S(=O)(=O)c2ccccc21)NC1CCCC1 (centres undefined) | 831
31 | COc1cccc(NC(=O)N2CCCC2c2cc(C(C)C)no2)c1 (centres undefined) | 855
32 | COc1cccc(NC(=O)Cn2nc3c(Oc4ccc(Cl)cc4)nccn3c2=O)c1 | 877
33 | COc1cccc(CN2CC[C@@](C)(O)[C@H](N3CCCC3)C2)c1 | 519
34 | O=C(Nc1nnc(SCc2ccc(Br)cc2)s1)c1ccccc1F | 1020
35 | COc1ccccc1C1(CNS(=O)(=O)c2ccc3c(c2)CCCC3)CCOCC1 | 1000
36 | COCC(=O)N1C[C@@H]2C(=O)N(CCc3ccccc3)C(=O)[C@@H]2C1 | 662
37 | Cc1nc2ccn(Cc3cccnc3)c(=O)c2cc1C(=O)NCCc1ccco1 | 598
38 | CCn1ccc2sc(C)c(C(=O)NCc3cccs3)c2c1=O | 772
39 | COc1nccnc1N1CCC(NC(=O)Cc2c(C)noc2C)C1 (centres undefined) | 596
40 | COc1cccc(-c2noc(N3CCCCC3)n2)c1 | 1070
41 | Cc1cc(Cl)ccc1S(=O)(=O)N1CCC(n2cnnc2C)CC1 | 745
42 | C=CCn1c(=O)c2ccccc2n(Cc2nc(-c3ccc(OC(C)C)cc3)no2)c1=O | 1130
43 | CN1C(=O)C2(CCN(C(=O)c3ccccc3)C2)c2ccccc21 (centres undefined) | 707
44 | COc1ccc(NC(=O)C(C)C2CCN(C(=O)Nc3ccc(Cl)cc3)CC2)c(OC)c1 (centres undefined) | 898
45 | CCOc1ccc(C(=O)n2nc(C)c(S(=O)(=O)N3CCCC3)c2C)cc1 | 1130
46 | COc1cccc(-c2noc(C3CCCN3C(=O)Nc3ccc(C)cc3Cl)n2)c1 (centres undefined) | 1120

Row | SMILES | RP-LC retention time [s]
47 | CCCc1cc(C2CCCN2C(=O)Cc2ccc(OC)cc2)no1 (centres undefined) | 909
48 | CCc1ccccc1NC(=O)Cn1nc2n(c1=O)CCCC2 | 674
49 | CCc1ccc(NC(=O)CN2CCN(Cc3ccc(F)cc3)C(=O)C2=O)cc1 | 818
50 | CC1CCc2onc(C(=O)Nc3cccc(Cl)c3)c2C1 (centres undefined) | 1160
51 | O=C(Cn1nc2c3cc(-c4ccccc4)nn3ccn2c1=O)N1CCCc2ccccc21 | 940
52 | Cc1cccc(NC(=O)Cn2c(=O)n(-c3ccccc3)c(=O)c3c2cc(C)n3C)c1 | 831
53 | Cn1ncc(N2CCCC(C(=O)NC3CCCCCCC3)C2)cc1=O (centres undefined) | 751
54 | Cn1cccc1C(=O)NCCn1c(=O)n(Cc2ccc(F)cc2)c2cccnc21 | 804
55 | COCc1nncn1C1CCN(S(=O)(=O)c2cc(Cl)ccc2OC)CC1 | 736
56 | CCOc1cccc(-c2noc(Cn3nc(-c4ccc(C)cc4)ccc3=O)n2)c1 | 1170
57 | CCOc1ccc2nc(N3CCCC(C(=O)NCCCN4CCOCC4)C3)sc2c1 (centres undefined) | 632
58 | COC(=O)c1cc(S(=O)(=O)N2CCCC2C(=O)Nc2cccc(Br)c2)cn1C (centres undefined) | 963
59 | O=C(C1CC1)N1CCN(S(=O)(=O)c2cc(-c3noc(C4CCC4)n3)cs2)CC1 | 926
60 | Cc1ccc(CNC(=O)c2cn(-c3ccc(NC(=O)C(C)C)cn3)cn2)cc1 | 793
61 | Cc1ccc(Cn2nc(C(=O)N3CCCc4cc(C)ccc43)ccc2=O)cc1 | 946
62 | O=C(NCCN1CCCCC1)C1CN(S(=O)(=O)c2cccnc2)CC12CCCCC2 (centres undefined) | 613
63 | CCOc1ccc(CC(=O)N2CCC3(CC2)N=C(c2ccccc2)NO3)cc1 | 780
64 | COc1ccc2nc(C(=O)N3CCN(c4ccc(F)cc4)CC3)cn2n1 | 731
65 | Cc1onc(-c2ccncc2)c1C(=O)NCCN(C)C1CCCCC1 | 575
66 | COc1ccc(S(=O)(=O)N2CCCC(C(=O)Nc3cc(C)ccc3C)C2)cc1Cl (centres undefined) | 1040
67 | O=C(NCc1ccccn1)C1CCCN(c2ncnc3c2oc2ccccc23)C1 (centres undefined) | 579
68 | Cc1cc(SCC(N)=O)nc2ccccc12 | 664
69 | CCN1c2ccc(C)cc2C(=O)NC12CCN(C(=O)c1cc(C)cc(C)c1)CC2 | 912

Row | SMILES | RP-LC retention time [s]
70 | COc1ccc(-c2nc(C)cc(C)c2CNC(=O)c2ccco2)cc1 | 585
71 | Cc1nn(C)cc1S(=O)(=O)N1CCN(C(=O)c2ccco2)CC1 | 626
72 | CCc1nc(-c2csc(S(=O)(=O)N3CCC(C(=O)NC4CCCCCCC4)CC3)c2)no1 | 1070
73 | Cc1cc2c(cc1S(=O)(=O)N1CCC(C(=O)NCc3ccc(Cl)cc3)CC1)OCC(=O)N2 | 786
74 | O=C(NCCn1c(=O)n(Cc2ccccc2)c2cccnc21)c1cnccn1 | 680
75 | CC(C)NC(=O)C1CCCN(c2nc3ncn(CC(=O)Nc4ccccc4Cl)c(=O)c3s2)C1 (centres undefined) | 741
76 | COCCCNC(=O)C1CCCN(C(=O)c2cccc(C(F)(F)F)c2)C1 (centres undefined) | 698
77 | O=C(NC1CCCCCC1)c1ccc2ccnc(N3CCN(c4ccccc4)CC3)c2c1 | 922
78 | Cc1nc(-c2csc(S(=O)(=O)N3CCC(C(=O)Nc4ccc(F)cc4C)CC3)c2)no1 | 886
79 | CC(C)N1CCn2cc(S(=O)(=O)Nc3ccc(F)c(F)c3)cc2C1=O | 794
80 | CCN1c2cc(Cl)ccc2C(=O)NC12CCN(C(=O)Nc1ccccc1OC)CC2 | 858
81 | CN1C(=O)c2cccn2CC1CNS(=O)(=O)Cc1ccccc1F (centres undefined) | 670
82 | N#Cc1cccc(C(=O)NC2CCN(c3cc(-c4cccs4)[nH]n3)C2)c1 (centres undefined) | 701
83 | O=S(=O)(c1ccc(-c2nnc(C3CCC3)o2)o1)N1CCOCC1 | 780
84 | CCN(C(=O)c1nc(C)n(C2CCN(S(C)(=O)=O)CC2)c1C)c1ccccc1 | 610
85 | CC(C)CCn1nc2c(S(=O)(=O)N3CCOCC3)cccn2c1=O | 758
86 | COc1cccc(-c2nc(-c3ccc(S(=O)(=O)N4CCC(C)CC4)cc3)no2)c1 | 1360
87 | CCCn1cc(CCNC(=O)Nc2ccc(OC)cc2)c2cccnc21 | 713
88 | COc1ccc(-c2cn3ccn(-c4cccc(F)c4)c(=O)c3n2)cc1OC | 746
89 | O=C(Nc1nc2c(s1)CN(S(=O)(=O)/C=C/c1ccccc1)CC2)c1cnccn1 | 780
